PubChem BioAssay (NCI)
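Each compound was tested at five concentrations against cells in 96-well plates for 48 hours. At the TGI there is no net growth.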

How the values were obtained:
Assay in all cases: NCI-60 cell line screen, 48 h
SN12C renal = tested on: SN12C renal
HOP-92 NSCLC = tested on: HOP-92 NSCLC
SF-539 CNS = tested on: SF-539 CNS
786-0 renal = tested on: 786-0 renal
ACHN renal = tested on: ACHN renal
MCF7 breast = tested on: MCF7 breast
KM12 colon = tested on: KM12 colon
NCI-H23 lung = tested on: NCI-H23 lung
LOX IMVI melanoma = tested on: LOX IMVI melanoma
HT29 colon = tested on: HT29 colon
A498 renal = tested on: A498 renal
SK-MEL-5 melanoma = tested on: SK-MEL-5 melanoma
M14 melanoma = tested on: M14 melanoma
K-562 leukemia = tested on: K-562 leukemia

| Compound | TGI (SN12C renal) [µM] | TGI (HOP-92 NSCLC) [µM] | TGI (SF-539 CNS) [µM] | TGI (786-0 renal) [µM] | TGI (ACHN renal) [µM] | TGI (MCF7 breast) [µM] | TGI (KM12 colon) [µM] | TGI (NCI-H23 lung) [µM] | TGI (LOX IMVI melanoma) [µM] | TGI (HT29 colon) [µM] | TGI (A498 renal) [µM] | TGI (SK-MEL-5 melanoma) [µM] | TGI (M14 melanoma) [µM] | TGI (K-562 leukemia) [µM] |
| --- | --- | --- | --- | --- | --- | --- | --- | --- | --- | --- | --- | --- | --- | --- |
| COC(=O)C1=NN2c3ccccc3CN([C@@H](C)c3ccccc3)C(=O)[C@@H]2[C@H]1c1ccccc1 | > 100 | > 100 | > 100 | > 100 | > 100 | > 100 | > 100 | > 100 | > 100 | > 100 | > 100 | > 100 | > 100 | > 100 |
| C=CCCCCCCCCC(=O)O | 339 | 199 | 212 |  |  | 452 | 107 | 274 | 259 | 227 | 1.06 | 183 |  | 426 |
| Clc1c2ccccc2nc2c1[nH]c1ccccc12 | > 100 | > 100 | > 100 | > 100 | > 100 | > 100 | 22.2 | > 100 | > 100 | 34.3 | > 100 | 21.3 | > 100 |  |
| O=Nc1c(O)cc(Nc2cccnc2)c2ccccc12 | > 100 | 68 | > 100 | > 100 | > 100 | > 100 | 90.6 | 76 | > 100 | 50.9 | > 100 | 11.6 | > 100 | 58.8 |
| O=C1CC2SC(COCc3ccccc3)(CCN2Cc2ccccc2)C1 (centres undefined) | > 100 | > 100 | > 100 | > 100 | > 100 | 81.9 | > 100 | > 100 | > 100 | > 100 | > 100 | 34.8 | > 100 | > 100 |
| CC1CN=C(Nc2ccc(F)c(Cl)c2)S1 (centres undefined) |  | > 100 | > 100 | > 100 | > 100 | > 100 | > 100 | > 100 | > 100 | > 100 | > 100 | > 100 | > 100 | > 100 |
| CCCNC(=O)N(C)C(=O)N1N=C(c2ccccc2)C1c1ccccc1 (centres undefined) | > 100 | > 100 | > 100 | > 100 | > 100 | > 100 | > 100 | > 100 | > 100 |  | > 100 | > 100 | > 100 | > 100 |
| NC(=O)C(=CNC(=S)Nc1cccc(C(F)(F)F)c1)C(N)=O | > 100 | > 100 | > 100 | > 100 | > 100 | > 100 | > 100 | > 100 | > 100 | > 100 | > 100 | > 100 | > 100 | > 100 |
| CC[C@@]1(CCC(=O)NCCc2c[nH]c3ccccc23)CCC(=O)N2CCc3c([nH]c4ccccc34)[C@H]21 | > 100 | > 100 | 61.3 | > 100 | > 100 | > 100 | 19.4 | > 100 | 96.2 |  | > 100 | > 100 | > 100 | > 100 |
| O=c1oc2ccc3ccccc3c2cc1-c1nc2ccc([N+](=O)[O-])cc2o1 | > 100 | > 91 | 26.3 | > 55.3 | > 24.2 | > 31.4 | > 100 | > 86.9 | > 91.3 | > 100 | > 88.4 | > 100 | > 75.3 | > 100 |
| COc1cccc(/C=C\c2ccc(O)cc2)c1 | > 68.3 | 64.8 | 53.1 | 49.2 | > 89.2 | > 100 | 33.3 | 39.6 | 41.2 | 53.7 | 69.8 | > 51.7 | 63.5 | > 50.4 |
| O=c1oc2ccc([N+](=O)[O-])cc2cc1Br | > 100 | > 100 | > 100 | > 100 | > 100 | > 100 | > 100 | > 100 | > 100 | > 100 | > 100 | > 100 | > 100 | > 100 |
| CCCCCCCCC/C=C1/CC(CO)(COC(=O)c2ccccc2)OC1=O (centres undefined) | 26.4 | 14.4 | 34.8 | 29.4 | 24.9 | 30.5 | 30.6 | 28.3 |  | 31.6 | 26.4 | 19.2 | 30.8 | 22.5 |
| Cc1ccc(N2C(N)=C(C#N)C(C#N)(C#N)C2c2ccccc2)cc1 (centres undefined) | 30.9 | 21.8 | 29.2 | 30.3 | 28.2 | 18.8 | 33.6 | 38.1 | 23.9 | 13.9 | 35.7 | 20.9 | 30.5 |  |
| CC1(C)C2CCC(O)(C2)C1N (centres undefined) | > 100 | > 100 | > 100 | > 100 | > 100 | > 100 | > 100 | > 100 | > 100 | > 100 | > 100 | > 100 | > 100 | > 100 |
| CCCNC(=O)N1CC(CN2CCN(c3ccccc3)CC2)O/C1=N/C(=O)Nc1ccccc1 (centres undefined) | > 100 | > 100 |  | > 100 | > 100 | > 100 | > 100 | > 100 | > 100 | > 100 | > 100 | 94.1 | > 100 | > 100 |
